This is an account of results in patent US8455639B2, “Crystalline form of an organic compound” (Sandoz AG, priority 2008, dated 2013).

The nature of data set [1]: Storage stability at ambient temperature, measured by HPLC (stability and purity test). In kind it is physicochemical. The conditions noted are these: samples stored for 4 months at ambient temperature. The procedure:
Stability and Purity Test:
Apparatus: Agilent 11 Series • Column: YMC-Pro C18; 150×4,6 mm, S-5 μm, 120A • Eluent: mobile phase A: 3.884 g of amidosulfonic acid in 1000 g of water; mobile phase B: 3.884 g of amidosulfonic acid in 250 g of water and 588 g of acetonitrile.
Measurement at a wavelength of 220 nm; injection volume 7 μl, oven temperature 40° C., Flow 1.0 ml/min
Sample preparation: approximately 10 mg of a sample of the crystalline form of alogliptin free base are dissolved in 10 ml of acetonitrile and the solution is filled up to 25 ml with water
Run time 20 min • Gradient: […]

Data set [2] in a line: Hygroscopicity: water uptake on stepwise increase/decrease of relative humidity. In kind it is physicochemical. The conditions noted are these: for water uptake: value at end of the one hour storage period. The procedure:
In these experiments humidity was increased/decreased stepwise. Starting at 0% relative humidity every one hour the humidity level was increased by 10% relative humidity. The gain/loss of weight was recorded continuously. The values given represent the value at the end of the one hour storage period at the indicated relative humidity level.
This water is easily lost, e.g. by storage at a relative humidity of 60% or less.

With `Cn1c(=O)cc(N2CCC[C@@H](N)C2)n(Cc2ccccc2C#N)c1=O` [2-[6-[3(R)-aminopiperidin-1-yl]-3-methyl-2,4-dioxo-1,2,3,4-tetrahydropyrimidin-1-ylmethyl]-benzonitrile], the “degradation (chemical stability)” value in data set [1] was “no degradation”. In data set [2] (exposed to extremely high relative humidity), the “change in crystal structure / formation of a hydrated form” value was “No change in crystal structure nor the formation of a hydrated form”. For the same compound, the hygroscopicity entry in data set [2] (in words) is on record as “low hygroscopicity”. Besides, the water uptake result was “about 0.4 % w/w” in data set [2] (stored at about 25° C. for 60 min at a relative humidity of 50%) and “about 1.6 % w/w” in data set [2] (stored at about 90% relative humidity at about 25° C. for 60 min).
